The source of these data is paper PMC7883289, “Synthesis of Paeonol-Ozagrel Conjugate: Structure Characterization and In Vivo Anti-Ischemic Stroke potential” (Frontiers in Pharmacology, 2021).

Data set [1] in a line: Partition coefficient, shake-flask method (n-octanol / aqueous phase). It is filed as physicochemical. The settings on record: n-octanol / aqueous phase buffered with phosphate pH 7.4, shake-flask, HPLC. How it is done:
The partition coefficient of POC was established by the shake-flask method between n–octanol and an aqueous phase ([Redasani and Bari, 2012]). The aqueous phase buffered with phosphate (pH 7.4, 100 ml) and n–octanol (100 ml) was mixed well, placed in a shaking air bath for 72 h, and then left to equilibrate until the two saturated phases completely separated. POC (5 mg) was dissolved in 50 ml of saturated n-octanol and diluted with the saturated aqueous equally. The mixture was placed in an oscillator and shaken for 1 h until the two phases separated. Concentration was analyzed by HPLC method and then the partition coefficient was calculated as the ratio of the concentration of POC in n–octanol to aqueous. All experiments were made in triplicate.

The next data set deals with PC12 cells. The experiment in a line: Cell viability, CCK8 method. It is filed as cell-based, Rat. The settings on record: 24 h, CCK8, tested 37.5 to 1,200.0 μM. On the procedure:
Rat PC12 pheochromocytoma cells were obtained from the Cell Resource Center, Peking Union Medical College. PC12 cells were grown as monolayers in tissue culture flasks at 37°C under a humidified, 5% CO2 atmosphere in the high–glucose Dulbecco’s Modified Eagle Medium (DMEM) medium.
The CCK8 (MedChemExpress, United States) method was used to estimate the cytotoxic effects of POC. Before treatment, the cells were seeded onto 96-well culture plates at an appropriate density according to the experimental protocol. After 24 h, the medium was replaced with fresh medium containing varying concentrations (37.5, 75.0, 150.0, 300.0, 600.0, 1,200.0 μM) from the POC serial dilutions. And PC12 was allowed to grow for another 24 h. After incubation, the cell viability was evaluated using the CCK8 assay. The absorbance was read at 450 nm on a microplate reader. These cell viability experiments were made in triplicate.

Data set [2] has as its system middle cerebral artery occlusion (MCAO) rats. As to the kind of experiment: Evaluation of neurological deficit (Longa score) in MCAO rats. The format is in vivo. The settings on record: 24 h after reperfusion, single iv dose 2 h after reperfusion: paeonol and OS 3 mg/kg, POC 4.5 mg/kg, n = 6. How it is done:
Male Sprague Dawley (SD) rats weighing among 220 g-230 g (Anhui Medicine University, Hefei, China; certificate number: SCXK20190,003) were housed under ad libitum access to food and water with a standardized light-dark cycle condition (25 ± 2°C, 12-hour light/dark cycle). All the experimental protocols were performed in accordance with the Institutional Animal Care and Use Committee of Anhui University of Chinese Medicine (Animal ethics number: AHUCM-rats-2019001). We used the minimal number of study animals (n = 6 rats in each group for different experiments). The rats were fastened upon the operating table in a supine position after being anesthetized with 2% pelltobarbitalum natricum (50 mg/kg). After disinfection of the skin within close proximity of the operative region, the right common carotid artery (CCA), external carotid artery (ECA) and internal carotid artery (ICA) were exposed with blunt dissection. The CCA was temporarily ligated and the ECA were permanently ligated ([Liu et al., 2016]). A nylon monofilament surgical thread was introduced into the ICA to block the MCA when the blunted distal end met resistance. After 2 h of occlusion, reperfusion was accomplished to restore blood supply to the MCA area by removing the filament ([Li et al., 2009]; [Zhai et al., 2017]). […] Rats were split randomly into five groups, including the sham, model, paeonol, OS and POC group. […] Neurological deficit was evaluated 24 h after reperfusion (blinded to experimenters). […] The rating score was assessed by the following standard: no neurological deficit, 0; failure to extend left forepaw fully, one; spontaneous circling to the left, two; falling to the left, three; inability to walk spontaneously and coma of consciousness, 4. […] Neurological scores for each group were calculated using six rats according to a sample size calculation (α err prob = 0.05, 1-β err prob = 0.95) and references ([Katayama et al., 2017]; [[…] al., 2019]; [Zheng et al., 2019]).

Take `COc1ccc(C(C)=O)c(OC(=O)C=Cc2ccc(Cn3ccnc3)cc2)c1` [POC, paeonol-ozagrel conjugate]: in data set [1], the logD was 0.425. In addition, in the data set with PC12 cells, the “concentration with no viability loss / no toxic effect” value is on record as “less than 75 μM”. The “neurological deficits score (Longa, 0-4)” value in data set [2] is recorded as 1.50 ± 0.55.
